How the values were obtained:
MCF-7 cells = experiment: TNFα treatment of MCF-7 cells, MUC1-C binding to IKKs; assay type: cell-based, Human
Experimental: (§1) Cell culture. Human HCT116 colon carcinoma cells, HeLa cervical carcinoma cells and MCF-7 breast cancer cells were grown in Dulbecco's modified Eagle's medium with 10% heat-inactivated fetal bovine serum, 100 units/ml penicillin, […] streptomycin and 2 mM L-glutamine. Human ZR-75-1 breast cancer cells were grown in RPMI1640 medium containing 10% heat-inactivated fetal bovine serum, antibiotics and L-glutamine. Human MCF-10A breast epithelial cells were grown in mammary epithelial cell growth media (MEGM; Cambrex Corp.).
(§2) Immunoprecipitation and immunoblotting. Lysates from subconfluent cells were prepared as described in Ren et al. (2004) Cancer Cell 5:163-175. Soluble proteins were incubated with anti-IKKβ (Cell Signaling Technology) or anti-IKKγ (Santa Cruz Biotechnology) for 2 h at 4° C. […] The immune complexes were detected with horseradish peroxidase-conjugated secondary (anti-IgG) antibodies (Amersham Biosciences) and enhanced chemiluminescence (ECL; Amersham Biosciences). […]

MCF-10A cells = experiment: TNFα stimulation of MCF-10A cells, immunoprecipitation and immunoblotting of fractions; assay type: cell-based, Human; settings: 20 ng/ml TNFα
Experimental: FIG. 10B is a pair of photographs of immunoblots. Lysates from MCF-10A cells left untreated (0) or stimulated with 20 ng/ml TNFα for the indicated times (0.5, or 2 hours) were immunoprecipitated with anti-IKKβ (left) or anti-IKKγ (right). The immunoprecipitates were immunoblotted with antibodies specific to MUC1-C, and either IKKβ (left panel) or IKKγ (right panel) as loading controls. The molecular weights of proteins (as indicated on the left of the photographs) are expressed as kilodaltons (kDa).
FIG. 10C is a series of photographs of immunoblots. MCF-10A cells were left untreated (0) or stimulated with 20 ng/ml TNFα for the indicated times. Cytosolic and nuclear fractions of the cells were prepared and subjected to immunoblotting with the indicated antibodies. The molecular weights of proteins (as indicated on the left of the photographs) are expressed as kilodaltons (kDa).
as §1
Subcellular fractionation. Nuclear and cytosolic fractions were prepared as described in Kharbanda et al. (1996) Cancer Res. 56:3617-3621.
as §2

TNFα
binding of MUC1-C to IKKβ or IKKγ (MCF-7 cells): no apparent effect | phosphorylation and degradation of IκBα (MCF-10A cells; MCF-10A cytosolic fractions): associated with phosphorylation and degradation of IκBα | targeting of NF-κB p65 to the nucleus (MCF-10A cells; MCF-10A nuclear fractions): targeting of NF-κB p65 to the nucleus | binding of MUC1-C to IKKβ and IKKγ (MCF-10A cells; MCF-10A): increased binding
